“Also recorded” adds a separate entry of the source.
Key:
HUVEC cells = assay: γH2AX DNA damage response in HUVEC cells (Western blot); type: cell-based
Description: (2) The transfection system of a 3.5 cm petri dish was prepared as follows: 1 μl of siRNA Oligo/Red (concentration of the original solution was 20 μM) was added to an EP tube containing 250 μl of pure Opti-MEM and mixed, and 1.5 μl of RNAiMAX (transfection Reagent) was added to the flow tube containing 250 μl of pure Opti-MEM and mixed, and then all the liquid in the EP tube was added to the flow tube and mixed, and allowed to stand at room temperature for 15 min.
(3) The prepared transfection system was added to a 3.5 cm culture dish, and the cells were cultured for 24-48 h, then the samples were collected and the total cell protein was extracted, and the knockdown effect of the gene was identified by Western Blotting.
(3) Add 150 μl of total protein lysate to each cell sample to make the lysate fully contact with the cells, scrape off the cell lysate with a scraper, collect it into a pre-cooled EP tube, and take an ice bath for 15 min.
(§1) Protein electrophoresis gels are double-layered gels, including an upper stacking gel and a lower separating gel. The concentration of the stacking gel is 5%, and the concentration of the separating gel is determined according to the molecular weight of the target protein. In this study, large molecular weight proteins (LRP5/6, β-catenin, β-arrestin1/2) used 8%-5% double-layer gel, and small molecular weight proteins (γH2AX, p53, p21, Bcl-2, Bax, Cleaved Caspase-3) used 12%-5% double-layer gel. In addition, the number of wells (10 wells or 15 wells) and thickness (1 mm or 1.5 mm) of the preparation gel were selected according to the number and volume of protein samples loaded. The gel formulation is shown in the experimental material section, and the preparation steps are as follows: […]

Leptin−/− mice = Leptin−/− mice injected with D-glucose, MDC rescue; type: in vivo, mouse; settings: 6-week-old Leptin−/− mice, D-glucose every 2 h for 24 h
Description: The in vivo rescue experiment of MDC in Leptin^−/− mice was performed by pre-intraperitoneal injection of MDC in 6-week-old Leptin^−/− mice (diluted in sterile PBS, 10 mg/kg) or the corresponding volume of DMSO (diluted in sterile PBS). The injected dose of MDC in Leptin^−/− mice should be calculated based on the body weight of 6-week-old littermates of WT mice. After 1 h of MDC intervention, 50% D-glucose or the corresponding volume of PBS was injected intraperitoneally. The procedure of injecting D-glucose into Leptin^−/− mice was as follows: 12 injections were performed every 2 hours during the 24-hour period, and the injection dose of D-glucose was fixed at the first dose (2 g/kg).

CT26 tumor-bearing mice [1] = assay: Survival of CT26 tumor-bearing mice (Kaplan-Meier); settings: mouse, in vivo; for survival of tumor-bearing mice: ip
wild-type mice heart = assay: Local injection of Dkk1 protein into the heart combined with MDC or BIM-46187; type: in vivo, mouse
Description: In the experiment of local injection of Dkk1 purified protein into the heart combined with MDC intervention, 10-week-old wild-type male mice were selected, the left chest was depilated, and intraperitoneal injection of MDC (diluted in sterile PBS, 10 mg/kg) or the corresponding volume of DMSO (diluted in sterile PBS) and injected at the same time every day thereafter. After 1 h of MDC intervention, cardiac Dkk1 protein injection was performed. The mice were given continuous inhalation anesthesia with 1% isoflurane and oxygenated with a ventilator, and then the fourth intercostal space near the sternum was opened to expose the heart. Using a 200 μl microsyringe, Dkk1 (10 μg of Dkk1 per heart, dissolved in 30 μl PBS) or an equal volume of PBS was injected locally at three sites in the heart. Of these, two sites are on the border around the left ventricle, and one site enters the myocardium of the left ventricle. After the injection, the wound was sutured, the anesthesia was removed, and the mice were awake. After MDC was continuously intervened for 2 days, the mice were anesthetized and the materials were collected.
In addition to injecting Dkk1 protein alone into the heart, we also need to perform experiments of local injection of Dkk1 combined with BIM-46187 into mouse hearts. According to the experimental grouping, it was divided into cardiac injections of four different solutions, including PBS, Dkk1, BIM-46187, and a mixture of Dkk1 and BIM-46187. The dosage of Dkk1 per heart is 10 μg, and the dosage of BIM-46187 is 2.4 ng, diluted with 30 μl PBS and then injected into the heart. The specific operation steps are the same as above. After the injection, the wound was sutured, the anesthesia was removed, and the mice were awake. Two days after the injection, the mice were anesthetized and the materials were collected.

LRP6 and Kremen2 = assay: Intramuscular injection of Dkk1, Western blot of membrane LRP6 and Kremen2; type: in vivo, mouse
Description: Wild-type mice and β-arrestin2+/−KO mice were injected into the left quadriceps (0.25 mg/kg) and an equal volume of PBS was injected into the right leg as controls. MDC (10 mg/kg), IGFBP-4/H95P (1.7 mg/kg) or PBS were injected in combination with Dkk1 as a control to observe the effects of drugs on Dkk1-induced signal transduction. After 48 hours, the mice were sacrificed, and the left and right quadriceps were taken to measure the […].
Membrane proteins were extracted according to the instructions of Membrane Protein Extraction Kit (Sangon Biotech, China). Western blot analysis omitted. Antibodies for WB analysis were purchased from Cell Signaling Technology and Proteintech.

β-arrestin1/2 = β-arrestin1/2 translocation in HUVEC cells (Western blot); type: cell-based
Description: (§2) (5) Add 100 μl (cell) or 200 μl (tissue) A solution to each sample, and resuspend the cell pellet with a pipette to completely disperse the pellet. The tissue pellet should be fully homogenized on ice with a homogenizer, and the ice bath should be used for 15 min.
(§3) (10) Add 50 μl (cells) or 100 μl (tissue) B solution to each sample, resuspend the pellet in Vortex at the highest speed for 10 s, ice bath for 10 min, and repeat twice to fully extract membrane proteins.
as §1

[2] = test system: STZ-induced diabetic mice; assay: STZ-induced type 1 diabetes mouse model with insulin or MDC rescue; type: in vivo
Description: STZ-induced diabetes is a chemical modeling method for diabetes. Its full name is streptozotocin, which is a broad-spectrum antibiotic isolated from achromatic streptomycin. It can selectively damage islet 13 cells in a short period of time, causing 13 cell necrosis, resulting in varying degrees of blood insulin drop and blood sugar rise, resulting in insulin-dependent type 1 diabetes mellitus. […] Modelling criteria are non-fasting blood glucose values above 13.8 mM (250 mg/dl). The modeling steps are as follows: (4) According to the body weight, mice in the model group were injected intraperitoneally with 2% STZ-citric acid solution (160 mg/kg), and the mice in the control group were intraperitoneally injected with the corresponding volume of citrate buffer. 2 h after the injection, the mice were fed back. […] Specific steps are as follows: (3) According to the body weight, the insulin rescue group was subcutaneously injected with diluted insulin (1 U/kg/day), once a day at the same time for 7 consecutive days, and the control group was given a corresponding volume of normal saline. […] Body weight and random blood glucose were measured at different time points after injection. […] (1) Sample preparation: Store the freshly obtained mouse blood in an EDTA anticoagulation tube, stand at room temperature for 10 min, centrifuge at 1000 g for 15 min, and collect the supernatant, namely plasma. If it cannot be detected immediately, it should be subpackaged and stored at −80° C. to avoid repeated freezing. If precipitation occurs during storage, it should be fully thawed at room temperature before use, and centrifuged again.

CT26 tumor-bearing mice [3] = assay: Tumor cachexia in CT26 tumor-bearing mice: tumor-free body weight, muscle weight, muscle membrane proteins; type: in vivo, mouse
LRP5/6 = assay: Membrane LRP5/6 endocytosis and nuclear β-catenin in HUVEC cells (Western blot); type: cell-based
Description: as §2, §3
(11) Aspirate the residual supernatant completely, and add 50 μl of nuclear protein extract to each sample.
as §1

[4] = test system: GPCR signaling pathways and cachexia-related pathways; assay: RNA-Seq analysis of quadriceps femoris; type: in vivo, mouse; settings: direct intramuscular injection of Dkk1 protein into the lower limbs
Description: Total RNA was extracted using Trizol kit (Lige technology), RNA sequencing library was constructed from the extracted RNA using Illlumina library preparation protocol, RNA-seq was performed on Illlumina HiSeq4000 platform, using two-terminal protocol, the length of both regions was 150 bp. Sequencing reads were aligned to annotated mouse transcripts (mm10) using hisat2 (v2.1.0). Using GFOLD (v1.1.4) to calculate the gene expression level and has found differentially expressed genes. The parameters are as follows: GFOLD value≠0, and the changing value of the two samples is ≥1.35. The RNA-seq data collector GSE121873 was uploaded to the gene expression comprehensive database. KEGG pathway analysis was performed on the defined genes.

Molecule: CN(C)c1cccc2c(S(=O)(=O)NCCCCCN)cccc12 [MDC]
- γH2AX signaling enhanced by H2O2 in the presence of Dkk1 (HUVEC cells; Dkk1 then H2O2 50 μM): significantly attenuated
- H2O2-induced γH2AX activation (HUVEC cells; H2O2 50 μM, without Dkk1): does not prevent H2O2-induced γH2AX activation
- γH2AX response by the substance itself (HUVEC cells; no Dkk1, no H2O2): does not elicit γH2AX responses
- Dkk1-induced γH2AX activation (HUVEC cells; pretreatment with MDC or LRP6N protein): attenuated; also recorded: prevents
- down-regulation of LRP5/6 on cardiac membranes induced by glucose injection (Leptin−/− mice): significantly reversed the down-regulation of LRP5/6 on cardiac membranes
- up-regulation of molecular markers of injury induced by glucose injection (Leptin−/− mice): significantly reversed
- death / shortened survival of tumor-bearing mice induced by Dkk1 injection (CT26 tumor-bearing mice [1]): prolong the shortening of survival in tumor-bearing mice caused by Dkk1; also recorded: inhibit the rapid death of tumor-bearing mice induced by Dkk1 injection
- survival of tumor-bearing mice (CT26 tumor-bearing mice [1]): prolongs the survival of CT26 mice
- Dkk1-induced cardiac β-arrestin1/2 translocation (wild-type mice heart; Dkk1 intracardiac injection with MDC or BIM-46187): inhibited
- Dkk1-induced cardiac changes (LRP5/6, γH2AX, p53, p21) (wild-type mice heart; Dkk1 intracardiac injection with MDC pretreatment or combined with BIM-46187): reversed
- Dkk1-induced endocytosis / downregulation of membrane LRP6 and Kremen2 (LRP6 and Kremen2; simultaneous injection with Dkk1): prevents this phenomenon
- Dkk1-induced translocation of β-arrestin1/2 (β-arrestin1/2; MDC pretreatment): prevent the above translocation changes of β-arrestin1/2; also recorded: prevents the translocation of β-arrestin1/2 into cells
- blood 8-OHdG (ELISA) ([2]; STZ diabetic mice): prevented the elevation of 8-OHdG
- blood glucose concentration ([2]; STZ diabetic mice): without altering blood glucose concentrations; also recorded: do not alter blood glucose levels
- body weight loss of diabetic mice ([2]; STZ diabetic mice): inhibits; also recorded: suppressed
- cardiac p53, p21, Bax/Bcl-2 and Cleaved Caspase-3 ([2]; STZ diabetic mice, heart): inhibits the upregulation of p53, p21, Bax/Bcl-2 and Cleaved Caspase-3
- cardiac γH2AX ([2]; STZ diabetic mice, heart): γH2AX activation in diabetic hearts can also be inhibited
- damage to myocardial structure (HE staining) ([2]; STZ diabetic mice, heart): prevented
- translocation of cardiac β-arrestin1/2 in diabetic hearts ([2]; STZ diabetic mice, heart): prevented
- overall LRP5/6 and nuclear or overall β-catenin expression levels ([2]; STZ diabetic mice, heart, MDC): remain unchanged
- LRP5/6 on the cardiac membrane ([2]; STZ diabetic mice, heart, Western blot): STZ-induced downregulation of LRP5/6 in diabetic cardiac membranes can be inhibited
- translocation of insulin receptors on the cardiac membrane or in the plasma ([2]; substance alone (FIG. 19G)): does not induce translocation of insulin receptors
- loss of body weight and muscle weight (CT26 tumor-bearing mice [3]): reverse tumor-induced loss of tumor-free body weight and muscle atrophy; also recorded: completely prevents the loss of body weight and muscle weight
- downregulation of LRP6 and Kremen2 on membrane in muscle (CT26 tumor-bearing mice [3]; Western blot): reverses downregulation of LRP6 and Kremen2 on membrane

B1: Dkk1: recombinant mouse Dkk1 protein purchased from Genscript; secreted protein inducing LRP5/6 endocytosis (protein)
chain: TLNSVLINSNAIKNLPPPLGGAGGQPGSAVSVAPGVLYEGGNKYQTLDNYQPYPCAEDEECGSDEYCSSPSRGAAGVGGVQICLACRKRRKRCMRHAMCCPGNYCKNGICMPSDHSHFPRGEIEESIIENLGNDHNAAAGDGYPRRTTLTSKIYHTKGQEGSVCLRSSDCAAGLCCARHFWSKICKPVLKEGQVCTKHKRKGSHGLEIFQRCYCGEGLACRIQKDHHQASNSSRLHTCQRH
- time of peak γH2AX activation (HUVEC cells; Dkk1 100 ng/ml): 15 min
- time to significant γH2AX activation (HUVEC cells; Dkk1 100 ng/ml): ≤ 5 min
- time after which nuclear β-catenin is down-regulated (LRP5/6; Dkk1 100 ng/ml): 60 min
- time from which endocytosis of LRP5 on the cell membrane is induced (LRP5/6; Dkk1 100 ng/ml): 15 min
- time from which endocytosis of LRP6 on the cell membrane is induced (LRP5/6; Dkk1 100 ng/ml): 5 min
- nuclear β-catenin expression within 30 min (LRP5/6; higher doses of Dkk1): does not down-regulate nuclear β-catenin expression
- activation of GPCR signaling pathways and cachexia-related pathways [4]: immediately led to the activation of GPCR signaling pathways and cachexia-related pathways
- survival of tumor-bearing mice (CT26 tumor-bearing mice [1]): significantly shorten the survival period of tumor-bearing mice
- cardiac membrane LRP5/6, γH2AX, p53, p21 and β-catenin signaling (wild-type mice heart; Dkk1 purified protein injected into myocardium, alone): directly induce the down-regulation of LRP5/6 and the up-regulation of γH2AX, p53 and p21 on the cardiac membrane without affecting β-catenin signaling
- cardiac β-arrestin1/2 translocation (wild-type mice heart; direct injection of Dkk1 into the heart, alone): induces down-regulation of membrane β-arrestin1/2 and plasma β-arrestin1/2 and nuclear β-arrestin1 are up-regulated
- translocation of insulin receptors in cardiac cells (wild-type mice heart; direct injection of Dkk1 protein): do not undergo translocation changes
- membrane LRP6 and Kremen2 after intramuscular injection of Dkk1 (LRP6 and Kremen2; Dkk1 alone, lower limbs of normal mice): causes the endocytosis of LRP6 and Kremen2 on the membrane
- β-arrestin1/2 translocation (cytoplasm / cell membrane) (β-arrestin1/2; Dkk1 stimulation alone): rapidly up-regulate β-arrestin1/2 in HUVEC cytoplasm and down-regulate β-arrestin1/2 on the cell membrane

From US20220349876A1, “USE OF DKK1 INHIBITOR IN PREVENTION AND/OR TREATMENT OF TUMOR CACHEXIA AND DISEASES ASSOCIATED WITH DIABETES” (SHANGHAI DONGTSU BIOSCIENCES CO., LTD., priority 2019, published 2022)
